Results as given in the CheMixHub ionic liquid set.

Assay: xn = mol fraction of the nth substance listed
Conditions: 100 kPa

CC[n+]1ccn(C)c1.O=C([O-])C(F)(F)F + OCC(O)CO
Conditions	electrical conductivity, 298.15 K [S/m]	electrical conductivity, 313.15 K [S/m]	viscosity, 293.15 K [mPa·s]	viscosity, 298.15 K [mPa·s]	viscosity, 303.15 K [mPa·s]	viscosity, 313.15 K [mPa·s]
x1 = 0.002	0.000383	0.0012	1382	893	592	280.8
x1 = 0.004	0.00069	0.00217	–	–	–	–
x1 = 0.013	0.00211	0.0066	1264	818	544	259.8
x2 = 0.202	0.81	1.37	47	38.2	31.3	22
x2 = 0.3	0.71	1.23	58	46.3	37.5	25.7
x2 = 0.399	0.57	1.02	65.5	51.5	41.1	27.5
x2 = 0.5	0.436	0.84	86	66.1	51.7	33.4
x2 = 0.6	0.305	0.63	115.9	86.6	66.1	40.8
x2 = 0.7	0.184	0.411	177.8	128.2	94.6	55
x2 = 0.8	0.08	0.199	316	218.7	155.2	84.1
x2 = 0.9	0.023	0.065	639	427	291.2	146.8
x2 = 0.956	0.0076	0.0231	983	643	432	210
x2 = 0.979	0.00328	0.0103	1188	772	514	246.5

CC[n+]1ccn(C)c1.O=C([O-])C(F)(F)F + OCCN(CCO)CCO
Conditions	electrical conductivity, 298.15 K [S/m]	electrical conductivity, 313.15 K [S/m]	viscosity, 293.15 K [mPa·s]	viscosity, 298.15 K [mPa·s]	viscosity, 303.15 K [mPa·s]	viscosity, 313.15 K [mPa·s]
x1 = 0.006	0.00085	0.0024	878	581	395	197.6
x1 = 0.007	0.00084	0.00237	871	576	392	196.1
x2 = 0.393	0.423	0.76	76.3	60	47.9	32
x2 = 0.501	0.287	0.54	98.1	75.4	59	38.1
x2 = 0.6	0.182	0.37	135.1	101	77	47.7
x2 = 0.692	0.109	0.237	190.6	139	103.5	61.2
x2 = 0.778	0.061	0.143	279.5	198.3	143.8	81.2
x2 = 0.857	0.0281	0.07	413	284.7	201.3	108.7
x2 = 0.931	0.0095	0.0268	621	419	289.4	149.9
x2 = 0.966	0.00397	0.0113	751	501	344	174.6
x2 = 0.98	0.0025	0.007	775	518	354	179.3

CC[n+]1ccn(C)c1.O=C([O-])C(F)(F)F + OCCO
Conditions	electrical conductivity, 298.15 K [S/m]	electrical conductivity, 313.15 K [S/m]	viscosity, 293.15 K [mPa·s]	viscosity, 298.15 K [mPa·s]	viscosity, 303.15 K [mPa·s]	viscosity, 313.15 K [mPa·s]
x1 = 0.001	0.0126	0.0215	20.8	16.9	13.8	9.56
x1 = 0.003	0.0278	0.0473	20.8	16.8	13.8	9.54
x1 = 0.009	0.065	0.111	20.6	16.7	13.7	9.53
x1 = 0.015	0.106	0.18	20.5	16.6	13.7	9.49
x2 = 0.489	1.36	2.23	20.6	17.5	14.9	11.1
x2 = 0.602	1.48	2.25	18.4	15.5	13.2	9.84
x2 = 0.71	1.33	2.06	17.2	14.5	12.3	9.09
x2 = 0.783	1.11	1.72	17.2	14.3	12.1	8.83
x2 = 0.843	0.89	1.41	17.6	14.6	12.2	8.81
x2 = 0.894	0.63	1.03	18.4	15.1	12.5	8.95
x2 = 0.934	0.415	0.69	19.3	15.8	13	9.2
x2 = 0.97	0.2	0.339	20.2	16.4	13.5	9.4
